Data on 5 molecules can be found in patent US8282926B2, “CCR5-specific antibodies with HIV neutralizing activity that recognize a linear dodecapeptide that mimics a conformational epitope in the second extracellular loop of CCR5” (The United States of America, as Represented by the …, priority 2004, dated 2012).

Assay [1] relates to mAb 2D7. Put plainly: Peptide ELISA: mAb 2D7 binding to biotinylated peptides captured on streptavidin. Also noted: species or system mouse. The following applies: for binding of mAb 2D7 to peptide in ELISA: biotinylated peptide captured by streptavidin. The method, then:
The bound antibodies were quantified by HRP-conjugated goat anti-mouse IgG antibody. […] Microtiter wells, coated with mAb 2D7 at 200 ng/well, were incubated with serially diluted synthetic 2D7-2SK peptide or with a control peptide (CGRAARIGFPGAYTTKNG) (SEQ ID NO:3) for 30 min at room temperature, p2D7-2SK phages were then added to all wells (10^9 phages/well), followed by addition of HRP-conjugated anti-phage antibodies. […] MAb 2D7 (50 ng/100 μl/well) was added to plates coated with either unmodified biotin-2D7-2SK peptide or mutated biotin-2D7-2SK peptide derivatives (Table 1), all captured on streptavidin coated wells. The bound 2D7 antibodies were quantified by HRP-conjugated goat anti-mouse IgG antibody. The absorbance value (0.49) of mAb 2D7 binding to 2D7-2SK peptide (unmodified) is represented as 100% control binding.
A. Materials. […] Monoclonal antibody (mAb) 2D7 was purchased from BD Pharmingen (San Diego, Calif.). Immunoglobulin and HRP (horseradish peroxidase) conjugated secondary antibodies used for ELISA were obtained from Jackson Immuno Research Laboratories (West Grove, Pa.). Buffers and substrates for ELISA were purchased from KPL Biotech (Gaithersburg, Md.). New Zealand Rabbits were procured from Charles River (Wilmington, Mass.). B. Epitope mapping using phage display library. A random, linear, dodecapeptide-phage display library (Ph.D-12, New England Biolabs) was used for mAb 2D7 epitope mapping. Affinity selection of the phage clones from the random peptide library was carried out per the manufacturer's instructions with minor modifications. Microtiter wells were coated with 200 ng mAb 2D7 in 100 μl PBS, pH 7.4, at 4° C. for 12 h followed by 1 h at room temperature (RT). The wells were washed with PBS containing 0.05% Tween-20 (PBST) and blocked with EMEM containing 5% FBS at RT for 2 h. The phage library (1×10^10 phages/100 μl) was added to the blocked wells and incubated at RT for 1 h. Unbound phages were washed-off with ten washes of PBST followed by three washes with PBS. The bound phages were eluted at low pH by incubation with elution buffer (0.1 N Gly.HCl, pH 2.2 containing 1 mg/ml BSA) at 37° C. for 10 min. Eluent phages were neutralised with 6 μl of 2 M Tris (pH unadjusted) per 100 μl phage eluate. After four rounds of biopanning, the phage clones were analysed by DNA sequencing and affinity-capture phage ELISA. C. Phage ELISA. Phages used for ELISA were derived from clones selected after the fourth round of panning. Microtiter plates coated with 200 ng of mAb 2D7 were blocked with EMEM containing 5% FBS (blocking solution). The phages (10^10/100 μl/well) diluted in blocking solution were then added and incubated for 1 h at room temperature (RT). The plates were washed three times with PBST prior to addition of […] anti-phage antibody (GE Healthcare, Piscataway, N.J.), and the reaction was quantified using ABTS substrate. Absorbance was measured at 405 nm. D. Peptide ELISA. Peptides were biotinylated using maleimide PEO2-Biotin reagent as per manufacturer's instructions (Pierce Biotech, Rockford, Ill.). The biotinylated peptide ([…]) was captured onto wells coated with 200 ng of streptavidin. After blocking with EMEM containing 5% FBS, serial dilutions of mAb 2D7 in blocking solution were added to each well, incubated for 1 hr at RT, followed by addition of peroxidase-conjugated goat anti-mouse IgG. The reaction was quantified using ABTS substrate. Absorbance was measured at 405 nm. […]

Assay [2] deals with mAb 2D7. The experiment in a line: Competition phage ELISA using synthetic peptides. Format: binding, mouse. The following applies: free peptide, FIG. 3B.
The test system of assay [3] is PM1 (CD4+/CCR5+) cells and 12E1 cells expressing HIV-1 envelope. The experiment in a line: Fusion-inhibition (syncytium-formation) assay, PM1 cells with 12E1 cells expressing HIV-1 envelope. Format: cell-based, human.
Another assay concerns 2D7-2SK peptide. Put plainly: Peptide ELISA: antibody binding to biotinylated 2D7-2SK peptide. The note with it: ELISA / binding assay. As for the experimental part: IgG antibodies from rabbit immunized subcutaneously with KLH-conjugated 2D7-2SK peptide were used in peptide and Cell ELISA. […] Specific antibody binding was measured by HRP-conjugated goat anti-rabbit IgG antibody.
A. Materials. […] Monoclonal antibody (mAb) 2D7 was purchased from BD Pharmingen (San Diego, Calif.). Immunoglobulin and HRP (horseradish peroxidase) conjugated secondary antibodies used for ELISA were obtained from Jackson Immuno Research Laboratories (West Grove, Pa.). Buffers and substrates for ELISA were purchased from KPL Biotech (Gaithersburg, Md.). New Zealand Rabbits were procured from Charles River (Wilmington, Mass.). B. Epitope mapping using phage display library. A random, linear, dodecapeptide-phage display library (Ph.D-12, New England Biolabs) was used for mAb 2D7 epitope mapping. Affinity selection of the phage clones from the random peptide library was carried out per the manufacturer's instructions with minor modifications. […] After four rounds of biopanning, the phage clones were analysed by DNA sequencing and affinity-capture phage ELISA. […] The plates were washed three times with PBST prior to addition of […] anti-phage antibody (GE Healthcare, Piscataway, N.J.), and the reaction was quantified using ABTS substrate. Absorbance was measured at 405 nm. […] The reaction was quantified using ABTS substrate. Absorbance was measured at 405 nm. […]

As for “Q-L-W-L-G-W-T-E-L-E-G-V-K-G-G-G-S-C (QLWLGWTELEGVKGGGSC) [2D7-2SK-SCR, reference compound]”, the “binding of mAb 2D7 to peptide in ELISA” value in the assay with mAb 2D7 [1] is listed as “not”. Still for that read-out and setting: with “F-C-A-L-D-G-D-F-G-W-L-A-P-A-C (FCALDGDFGWLAPAC) [MD23, reference compound]” the entry was “did not bind”. For the molecule “E-W-Q-K-E-G-L-V-T-L-W-L-G-G-G-G-S-C (EWQKEGLVTLWLGGGGSC) [2D7-2SK]”, the “binding of mAb 2D7 to peptide in ELISA” value in the assay with mAb 2D7 [1] is on record as “concentration-dependent specific reactivity”. Further, the “absorbance value of mAb 2D7 binding to peptide” value with mAb 2D7 [1] (mAb 2D7 50 ng/100 μl/well, represented as 100% control binding, FIG. 3C) amounted to 0.49. For the same molecule, the “inhibition of binding of phage p2D7-2SK to mAb 2D7-coated plates” value in the assay on mAb 2D7 [2] was “inhibited”. In assay [3] (peptide alone), the “inhibitory activity of peptide by itself in the fusion assay” value is on record as “did not demonstrate any inhibitory activity”. In the case of “E-W-Q-R-E-G-L-V-T-L-W-L-G-G-G-G-S-C (EWQREGLVTLWLGGGGSC) [2D7-2SK-K4R]”, in the assay with mAb 2D7 [1], the “binding of mAb 2D7 to peptide in ELISA” value is listed as “completely lost binding”.

B1: ScFv-SK-34: single chain human monoclonal antibody against peptide 2D7-2SK; VH SEQ ID NO:12, VL SEQ ID NO:14 (antibody, listed as Homo sapiens, V domains shown)
VH: EVQLLESGGGLVQPGGSLRLSCAASGFTFDDYGMSWVRQAPGKGLEWVSVISASGGSTYYADSVNGRFTISRDNSKNTLYLQMNSLRAEDTAVYYCARYLPGLWAMDVWGQGTLVTVSSGSA
VL: DIVLTQPPSASGTPGQRVTISCTGSRSNIGKNYVSWYQQLPGKAPKLLIYKNYQRPSGVPDRFSGSKSGTSASLAISGLRSEDEADYYCAAWDDSLSGWVFGGSTQLTVLA
B1: in assay [3] (R5 HIV-1 envelopes, human CCR5 expressing cells), the “inhibition of HIV syncytia formation, in words” value is on record as “positive”. In the assay with 2D7-2SK peptide, the “binding to 2D7-2SK peptide” value is “bind preferentially and with high affinity”.
